Where two headings read alike, the source gives them in different places. Values belong to the compound of their own block, whether it stands above or below them.
Legend:
Assay type in all cases: cell-based, human
[1] = tested on: p53 expression in resistant AML blasts with absent p53 expression; test: Ex vivo AML blasts epigenetic and MDM2 inhibitor apoptosis assay; details: alone or in combination, followed by MI-219; four AML cases with absent or very low p53 mRNA
Procedure: Blasts enriched to >90% purity using methods detailed above were incubated with either DMSO or 0.5 μM 5-azacytidine (A2385, Sigma-Aldrich, Saint Louis, Mo.) for 48 hours (with 5-azacytidine replenished every 24 hours). During the last 12 hours of incubation, blasts were further aliquoted and treated with either 0.3 μM Trichostatin A (#9950, Cell Signaling Technology, Danvers, Mass.) or DMSO. At the end of the 48 hour incubation, each of the four differentially treated subgroups of blasts were treated with MI-219 at final concentrations of 0, 2.5, 5 and 10 μM for 40 hours, followed by annexin-V/PI FACS-based analysis of apoptosis. Aliquots of blasts in parallel were cultured in a 48-well plate at 10^6 cells per well in 1 ml of medium and treated with 10 μM MI-219 or solvent for 8 hours. Blasts were harvested, lysed and protein prepared for immunoblotting as described.
Attempting to obtain evidence for epigenetic p.53 gene silencing in AML with absent p53 mRNA expression, four AML cases were selected based on the availability of cryopreserved cells with absent or very low p53 mRNA for further analysis and treated purified blasts with trichostatin A and azacytidine (alone or in combination) followed by treatment with MI-219. Readouts for these experiments was the fraction of blasts undergoing apoptosis and posttreatment p53 protein levels. […]

AML-193 = test: MI-219 apoptosis induction in AML cell lines; details: AML-193 AML cell line, p53 (exon5-9) mut
Procedure: (§1) Next—the ability of MI-219 to induce apoptosis in 19 AML-derived cell lines was assessed.

AP-1060 = test: MI-219 apoptosis induction in AML cell lines; details: AP-1060 AML cell line, p53 wt
Procedure: as §1

GF-D8 = test: MI-219 apoptosis induction in AML cell lines; details: GF-D8 AML cell line, p53 (exon5-9) mut
Procedure: as §1

HL60 = test: MI-219 apoptosis induction in AML cell lines; details: HL60 AML cell line, p53 deleted
Procedure: as §1

KG-1 = test: MI-219 apoptosis induction in AML cell lines; details: KG-1 AML cell line, p53 (exon5-9) mut
Procedure: as §1

Kasumi-1 = test: MI-219 apoptosis induction in AML cell lines; details: Kasumi-1 AML cell line, p53 (exon5-9) mut
Procedure: as §1

Kasumi-3 = test: MI-219 apoptosis induction in AML cell lines; details: Kasumi-3 AML cell line, p53 (exon5-9) mut
Procedure: as §1

ME-1 = test: MI-219 apoptosis induction in AML cell lines; details: ME-1 AML cell line, p53 (exon5-9) mut
Procedure: as §1

ML-2 = test: MI-219 apoptosis induction in AML cell lines; details: ML-2 AML cell line, p53 wt
Procedure: as §1

MOLM-13 = test: MI-219 apoptosis induction in AML cell lines; details: MOLM-13 AML cell line, p53 wt
Procedure: as §1

MOLM-16 = test: MI-219 apoptosis induction in AML cell lines; details: MOLM-16 AML cell line, p53 (exon5-9) mut
Procedure: as §1

MONO-MAC-6 = test: MI-219 apoptosis induction in AML cell lines; details: MONO-MAC-6 AML cell line, p53 (exon5-9) mut
Procedure: as §1

MUTZ-2 = test: MI-219 apoptosis induction in AML cell lines; details: MUTZ-2 AML cell line, p53 wt
Procedure: as §1

OCI-AML-2 = test: MI-219 apoptosis induction in AML cell lines; details: OCI-AML-2 AML cell line, p53 wt
Procedure: as §1

OCI-AML-3 = test: MI-219 apoptosis induction in AML cell lines; details: OCI-AML-3 AML cell line, p53 wt
Procedure: as §1

OCI-AML-5 = test: MI-219 apoptosis induction in AML cell lines; details: OCI-AML-5 AML cell line, p53 wt
Procedure: as §1

OCI-M2 = test: MI-219 apoptosis induction in AML cell lines; details: OCI-M2 AML cell line, p53 (exon5-9) mut
Procedure: as §1

SIG-M5 = test: MI-219 apoptosis induction in AML cell lines; details: SIG-M5 AML cell line, p53 wt
Procedure: as §1

SKM-1 = test: MI-219 apoptosis induction in AML cell lines; details: SKM-1 AML cell line, p53 (exon5-9) mut
Procedure: as §1

p53 = p53 immunoblot of AML cell lines after MI-219 treatment
AML blasts = test: Ex vivo AML blasts MDM2 inhibitor apoptosis assay (annexin-V/PI FACS)
Procedure: Blasts enriched to >90% purity using methods detailed above were incubated in serum-supplemented RPMI medium at 2.5×10^5 cells in 100 μl final volume in the presence of various concentrations of the MDM2 inhibitors MI-219 and MI-63 (range 0.625-20 μM) for 40 hours. Apoptosis and necrosis was measured for each treated blast aliquot using annexin-V/PI FACS-based readouts and values subsequently normalized to spontaneous death rates in untreated parallel cultures according to the formula (% alive=% mean alive treated samples/% mean alive paired non-treated samples).
To evaluate the efficacy of MDM2 inhibitor-mediated apoptotic cell kill in AML blasts ex vivo, blasts from 109 AML specimens (97 with wild type p53 and 12 with mutant p53 by exon 5-9 exon sequence analysis) were purified to >90% purity and cell aliquots were incubated for 40 hours with escalating concentrations of the MDM2 inhibitors MI-219 (N=109) and MI-63 (N=60). The apoptotic cell fraction in treated samples was subsequently quantitated through annexin V-PI-based FACS analysis and normalized to measurements in paired untreated cells.

[2] = ex vivo, blasts from 109 patients

Structure (SMILES): CC(/C=C/C(=O)NO)=C\[C@@H](C)C(=O)c1ccc(N(C)C)cc1 [Trichostatin A]
p53 expression after treatment [1]: Does Not Induce p53 Expression

Structure (SMILES): Nc1ncn([C@@H]2O[C@H](CO)[C@@H](O)[C@H]2O)c(=O)n1 [Azacytidine, 5-azacytidine]
p53 expression after treatment [1]: Does Not Induce p53 Expression

IC50 (AML-193): > 20 µM | IC50 (AP-1060): 4.22 µM | IC50 (GF-D8): > 20 µM | IC50 (HL60): > 20 µM | IC50 (KG-1): > 20 µM | IC50 (Kasumi-1): > 20 µM | IC50 (Kasumi-3): > 20 µM | IC50 (ME-1): > 20 µM | IC50 (ML-2): 7.04 µM | IC50 (MOLM-13): 2.66 µM | IC50 (MOLM-16): > 20 µM | IC50 (MONO-MAC-6): > 20 µM | IC50 (MUTZ-2): 1.28 µM | IC50 (OCI-AML-2): 5.25 µM | IC50 (OCI-AML-3): 18.2 µM | IC50 (OCI-AML-5): 13.8 µM | IC50 (OCI-M2): > 20 µM | IC50 (SIG-M5): 3.44 µM | IC50 (SKM-1): > 20 µM | fraction of AML cases with wild type p53 with IC50>10 μM (AML blasts; 21/97 cases): 22% | fraction of AML cases with wild type p53 exon 5-9 that were very sensitive (IC50<2 μM) (AML blasts; 32/97 cases): 33% | fraction of AML cases with wild type p53 with IC50>5 μM (AML blasts; 32/97 cases): 33% | fraction of AML cases with wild type p53 exon 5-9 that were sensitive (IC50>2 μM to <5 μM) (AML blasts; 33/97 cases): 34% | fraction of AML samples with FLT3-ITD with IC50 <2 μM (AML blasts; FLT3-ITD, N=19): 58% | fraction of AML samples with FLT3-ITD with IC50 <5 μM (AML blasts; FLT3-ITD, N=19): 84% | IC50 (AML blasts; all AML with wild type p53 exon 5-9, read-out: threshold IC50 value at the 25th percentile): 1.78 µM | IC50 (AML blasts; all AML with wild type p53 exon 5-9, read-out: threshold IC50 value at the 50th percentile): 3.2 µM | IC50 (AML blasts; previously untreated AML cases, exclusive of p53 exon 5-9 mutations, read-out: mean IC50): 6.6 µM | IC50 (AML blasts; primary AML, exclusive of cases with p53 exon 5-9 mutations, 40 hours, read-out: mean IC50): 6.1 µM | IC50 (AML blasts; relapsed AML cases, exclusive of p53 exon 5-9 mutations, read-out: mean IC50): 4.4 µM | IC50 (AML blasts; secondary AML, exclusive of cases with p53 exon 5-9 mutations, 40 hours, read-out: mean IC50): 7.9 µM | IC50 (AML blasts; tAML, exclusive of cases with p53 exon 5-9 mutations, 40 hours, read-out: mean IC50): 4.8 µM
Structure (SMILES): CC(C)(C)C[C@H]1N[C@@H](C(=O)NCC[C@H](O)CO)[C@H](c2cccc(Cl)c2)[C@@]12C(=O)Nc1cc(Cl)c(F)cc12.Cl [MI-219]
p53 immunoblot (MI-219 10 μM) (p53; AP-1060): Inducible | p53 immunoblot (MI-219 10 μM) (p53; GF-D8): non-inducible | p53 immunoblot (MI-219 10 μM) (p53; Kasumi-1): non-inducible | p53 immunoblot (MI-219 10 μM) (p53; Kasumi-3): non-inducible | p53 immunoblot (MI-219 10 μM) (p53; ML-2): Inducible | p53 immunoblot (MI-219 10 μM) (p53; MOLM-13): Inducible | p53 immunoblot (MI-219 10 μM) (p53; MOLM-16): non-inducible | p53 immunoblot (MI-219 10 μM) (p53; MONO-MAC-6): non-inducible | p53 immunoblot (MI-219 10 μM) (p53; MUTZ-2): Inducible | p53 immunoblot (MI-219 10 μM) (p53; OCI-AML-2): Inducible | p53 immunoblot (MI-219 10 μM) (p53; OCI-AML-3): Inducible | p53 immunoblot (MI-219 10 μM) (p53; OCI-AML-5): Inducible | p53 immunoblot (MI-219 10 μM) (p53; OCI-M2): non-inducible | p53 immunoblot (MI-219 10 μM) (p53; SIG-M5): Inducible | p53 immunoblot (MI-219 10 μM) (p53; SKM-1): non-inducible | fraction of AML cases with unmutated p53 with primary resistance (AML blasts; [2]): ~30% | sensitivity of AML cases with mutated p53 (AML blasts; [2]): resistant

IC50 (AML-193): > 10 µM | IC50 (AP-1060): 6.77 µM | IC50 (GF-D8): > 10 µM | IC50 (HL60): > 10 µM | IC50 (KG-1): > 10 µM | IC50 (Kasumi-1): > 10 µM | IC50 (Kasumi-3): > 10 µM | IC50 (ME-1): > 10 µM | IC50 (ML-2): 10.4 µM | IC50 (MOLM-13): 4.04 µM | IC50 (MOLM-16): > 10 µM | IC50 (MONO-MAC-6): > 10 µM | IC50 (MUTZ-2): 0.951 µM | IC50 (OCI-AML-2): 7.22 µM | IC50 (OCI-AML-3): > 10 µM | IC50 (OCI-AML-5): > 10 µM | IC50 (OCI-M2): > 10 µM | IC50 (SIG-M5): 4.73 µM | IC50 (SKM-1): > 10 µM
Structure (SMILES): COc1ccc(C2=N[C@@H](c3ccc(Cl)cc3)[C@@H](c3ccc(Cl)cc3)N2C(=O)N2CCNC(=O)C2)c(OC(C)C)c1 [Nutlin, reference compound]

IC50 (AML-193): > 10 µM | IC50 (AP-1060): 4.03 µM | IC50 (GF-D8): > 10 µM | IC50 (HL60): > 10 µM | IC50 (KG-1): > 10 µM | IC50 (Kasumi-1): > 10 µM | IC50 (Kasumi-3): > 10 µM | IC50 (ME-1): > 10 µM | IC50 (ML-2): 7.47 µM | IC50 (MOLM-13): 2.85 µM | IC50 (MOLM-16): > 10 µM | IC50 (MONO-MAC-6): > 10 µM | IC50 (MUTZ-2): 1.17 µM | IC50 (OCI-AML-2): 4.74 µM | IC50 (OCI-AML-3): > 10 µM | IC50 (OCI-AML-5): > 10 µM | IC50 (OCI-M2): > 10 µM | IC50 (SIG-M5): 3.8 µM | IC50 (SKM-1): > 10 µM
Structure (SMILES): CC(C)(C)C[C@H]1N[C@@H](C(=O)NCCN2CCOCC2)[C@H](c2cccc(Cl)c2F)[C@@]12C(=O)Nc1cc(Cl)ccc12 [MI-63]
